Columns and labels:
Assay in all cases: relative viability (nuclei count vs DMSO), 5 days (fraction); higher = more cells survive
Wnt-C59 + Bortezomib = compound: CC1=NC=CC(=C1)C2=CC=C(C=C2)CC(=O)NC3=CC=C(C=C3)C4=CN=CC=C4 [Wnt-C59] + CC(C)C[C@H](NC(=O)[C@H](Cc1ccccc1)NC(=O)c1cnccn1)B(O)O [Bortezomib] (partner 0.002 µM)
Outline: (§1)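 Relative viability divides the nuclei count in treated wells by that in vehicle wells. Lung cancer cell lines were seeded in 1536-well plates, dosed by pin tool the next day, and fixed and stained after 5 days in one step with final 0.05% Triton X-100, 1% formaldehyde and 1 ug/ml Hoechst. Dosing was a single drug or a fixed anchor-drug dose plus five library-drug doses (not always all listed) in √10 steps, and values are medians of duplicate plates imaged at 4×.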

Wnt-C59 + Crizotinib = compound: CC1=NC=CC(=C1)C2=CC=C(C=C2)CC(=O)NC3=CC=C(C=C3)C4=CN=CC=C4 [Wnt-C59] + C[C@@H](Oc1cc(-c2cnn(C3CCNCC3)c2)cnc1N)c1c(Cl)ccc(F)c1Cl [Crizotinib] (partner 1 µM)
Outline: as §1

Wnt-C59 + Linsitinib = compound: CC1=NC=CC(=C1)C2=CC=C(C=C2)CC(=O)NC3=CC=C(C=C3)C4=CN=CC=C4 [Wnt-C59] + C[C@]1(O)C[C@@H](c2nc(-c3ccc4ccc(-c5ccccc5)nc4c3)c3c(N)nccn32)C1 [Linsitinib] (partner 1 µM)
Outline: as §1

Lapatinib + Bortezomib = compound: CS(=O)(=O)CCNCc1ccc(-c2ccc3ncnc(Nc4ccc(OCc5cccc(F)c5)c(Cl)c4)c3c2)o1 [Lapatinib] + CC(C)C[C@H](NC(=O)[C@H](Cc1ccccc1)NC(=O)c1cnccn1)B(O)O [Bortezomib] (partner 0.002 µM)
Outline: as §1

UMC-11
relative viability (Wnt-C59 + Bortezomib; first compound 0.001 µM): 0.715
relative viability (Wnt-C59 + Bortezomib; first compound 0.01 µM): 0.616
relative viability (Wnt-C59 + Bortezomib; first compound 0.03162 µM): 0.75
relative viability (Wnt-C59 + Bortezomib; first compound 0.1 µM): 0.728
relative viability (Wnt-C59 + Crizotinib; first compound 0.001 µM): 0.659
relative viability (Wnt-C59 + Crizotinib; first compound 0.01 µM): 0.567
relative viability (Wnt-C59 + Crizotinib; first compound 0.03162 µM): 0.588
relative viability (Wnt-C59 + Crizotinib; first compound 0.1 µM): 0.518
relative viability (Wnt-C59 + Linsitinib; first compound 0.001 µM): 0.96
relative viability (Wnt-C59 + Linsitinib; first compound 0.01 µM): 0.977
relative viability (Wnt-C59 + Linsitinib; first compound 0.03162 µM): 1.04
relative viability (Wnt-C59 + Linsitinib; first compound 0.1 µM): 0.991
relative viability (Lapatinib + Bortezomib; first compound 0.02 µM): 0.838
relative viability (Lapatinib + Bortezomib; first compound 0.06325 µM): 0.705
relative viability (Lapatinib + Bortezomib; first compound 0.2 µM): 0.852
relative viability (Lapatinib + Bortezomib; first compound 0.6325 µM): 0.798
relative viability (Lapatinib + Bortezomib; first compound 2 µM): 0.665

Source: the supplement of paper PMC10307832
